PubChem BioAssay AID2060896 (Molecular Pharmacology Branch, DTP, NCI, 2025)

Tested on: 941728-121-R-J1-PDC complex spheroid viability
Assay: Anticancer human tumor 941728-121-R-J1-PDC patient-derived lung adenocarcinoma cell line growth inhibition [RAS]
Details: for IC50: curve of first compound; for viability, T/C: stronger effect = lower value
From the text: RAS pathway inhibitors in Combinations in Complex Spheroids
A high-throughput screen of multi-cell type tumor spheroids was designed to identify active combinations of RAS pathway inhibitors and targeted small molecules. Complex spheroids include a stromal component modeled by human endothelial cells (HUVEC) and fibroblasts modeled by human mesenchymal stem cells (MSCs). The concentration ranges selected for each drug and investigational agent were based upon clinically achievable concentrations if the clinical Cmax of the agent was known.
Compounds. The drugs and investigational agents: abemaciclib (NSC768073), cobimetinib (NSC768068), divarasib (GDC6063, NSC841802), docetaxel (NSC628503), GDC-1971 (RLY-1971, NSC841576), gemcitabine (NSC613327), inavolisib (NSC800729), ipatasertib (NSC767898), KB-0742 (NSC834161), MRTX-1133 (NSC836407), osimertinib (NSC779217), RMC-4630 (NSC839698), RMC-6236 (NSC851965), RMC-6291 (NSC852671), Ro-3306 (NSC812927), sapanisertib (NSC764658), SN-38 (NSC673596), staurosporine (NSC755774), SY5609 (NSC837396), and tovorafenib (DAY101, NSC766906), were obtained from the National Cancer Institute (NCI) Developmental Therapeutics Program Chemical Repository. The FDA-approved anticancer drug set is available from the NCI Developmental Therapeutics Program. […] The stock solutions were prepared in dimethyl sulfoxide (DMSO, Sigma-Aldrich, St. Louis, MO, cat. D2650) at 800-fold the tested concentration and stored at -70 degrees C prior to their use. All drugs and investigational agents were tested over a range starting from a high concentration at or near the clinical Cmax and decreasing in half-log increments. If the clinical Cmax for an agent had not been determined, the highest concentration tested was 10 microM.
Cell Culture. All cells were maintained in an incubator at 37 degrees C and 5% CO2 with 95% humidity. The PDC lines were cultured according to standard operating procedures established by the NCI PDMR. All PDCs were thawed and cultured in Matrigel-coated flasks prepared with a working solution of 1X Ham's F-12 nutrient mix, without supplementation (Invitrogen, Waltham, MA, cat. 11765054), 100 U/mL penicillin-streptomycin (Invitrogen, cat. 15140122), and 2.5% Matrigel (Corning Inc., Corning, NY, cat. 354248) for the first three passages. The 362531-283-R-J2-PDC and 782815-120-R-J1-PDC lines were cultured in 6C/Colon 1B media, which includes advanced DMEM/F-12 (Thermo Fisher Scientific, cat. 12634028), 10 mM HEPES (Thermo Fisher Scientific, cat. 15630080), 1X GlutaMAX supplement (Thermo Fisher Scientific, cat. 35050061), 0.1 mg/mL primocin (InvivoGen, San Diego, CA, cat. ant-pm-2), 10% defined fetal bovine serum, heat inactivated (HyClone Laboratories Inc., Logan, UT, cat. SH30070.03HI), 50% L-WRN conditioned media (ATCC, cat. CRL-3276), 1.25 mM N-Acetyl-L-cysteine (Sigma-Aldrich, cat. A9165), 10 mM nicotinamide (Sigma-Aldrich, cat. N0636), 1X B-27 supplement (Thermo Fisher Scientific, cat. 17504044), 1X N-2 supplement (Thermo Fisher Scientific, cat. 17502048), 50 ng/mL human EGF (Thermo Fisher Scientific, cat. PHG0311), and 10 microM Y-27632 dihydrochloride (Tocris Bioscience, cat. 1254). The K12877-001-R-J1-PDC line was cultured in 6I media, which includes all 6C/Colon 1B media plus 10 ng/mL human FGF-10 (PeproTech, cat. 100-26), 1 ng/mL human FGF-2 (PeproTech, cat. 100-18B), 1 µM prostaglandin E2 (Tocris Bioscience, cat. 2296), […] hydrocortisone (Sigma-Aldrich, cat. H4001), and […] bovine insulin (Sigma-Aldrich, cat. I6634). The K86415-001-R-J1-PDC line was cultured in 6D media, which includes all 6C/Colon 1B media components minus the L-WRN conditioned media. The 485176-168-R4-J1-PDC was cultured in PANC media, which includes all 6C/Colon 1B media plus 100 ng/mL human FGF-10 (PeproTech, cat. 100-26), 500 nM SB-431542 (Selleckchem, cat. S1067), and 10 nM gastrin (Tocris Bioscience, cat. 3006). […]

[1] = second compound 0.000949 µM, first compound 0.00316 µM
[2] = second compound 0.000949 µM, first compound 0.01 µM
[3] = second compound 0.000949 µM, first compound 0.0316 µM
[4] = second compound 0.000949 µM, first compound 0.1 µM
[5] = second compound 0.000949 µM, first compound 0.316 µM
[6] = second compound 0.000949 µM, first compound 1 µM
[7] = second compound 0.003 µM, first compound 0.00316 µM
[8] = second compound 0.003 µM, first compound 0.01 µM
[9] = second compound 0.003 µM, first compound 0.0316 µM
[10] = second compound 0.003 µM, first compound 0.1 µM
[11] = second compound 0.003 µM, first compound 0.316 µM
[12] = second compound 0.003 µM, first compound 1 µM
[13] = second compound 0.00949 µM, first compound 0.00316 µM
[14] = second compound 0.00949 µM, first compound 0.01 µM
[15] = second compound 0.00949 µM, first compound 0.0316 µM
[16] = second compound 0.00949 µM, first compound 0.1 µM
[17] = second compound 0.00949 µM, first compound 0.316 µM
[18] = second compound 0.00949 µM, first compound 1 µM
[19] = second compound 0.03 µM, first compound 0.00316 µM
[20] = second compound 0.03 µM, first compound 0.01 µM
[21] = second compound 0.03 µM, first compound 0.0316 µM
[22] = second compound 0.03 µM, first compound 0.1 µM
[23] = second compound 0.03 µM, first compound 0.316 µM
[24] = second compound 0.03 µM, first compound 1 µM
[25] = second compound 0.0949 µM, first compound 0.00316 µM
[26] = second compound 0.0949 µM, first compound 0.01 µM
[27] = second compound 0.0949 µM, first compound 0.0316 µM
[28] = second compound 0.0949 µM, first compound 0.1 µM
[29] = second compound 0.0949 µM, first compound 0.316 µM
[30] = second compound 0.0949 µM, first compound 1 µM
[31] = second compound 0.3 µM, first compound 0.00316 µM
[32] = second compound 0.3 µM, first compound 0.01 µM
[33] = second compound 0.3 µM, first compound 0.0316 µM
[34] = second compound 0.3 µM, first compound 0.1 µM
[35] = second compound 0.3 µM, first compound 0.316 µM
[36] = second compound 0.3 µM, first compound 1 µM
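Also: spheroids exposed to compounds for 7 days before readout.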
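For viability, T/C in this document: 100% = DMSO vehicle control viability.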

With `CCN1CCN(Cc2ccc(Nc3ncc(F)c(-c4cc(F)c5nc(C)n(C(C)C)c5c4)n3)nc2)CC1` + CCn1c(-c2cccnc2C(C)OC)c2c3cc(ccc31)N1CCOC(CC(NC(=O)C(C(C)C)N(C)C(=O)C3(F)CCN(C(=O)C#CC(C)(C)N(C)C)CC3)C(=O)N3CCCC(N3)C(=O)OCC(C)(C)C2)C1 the IC50 (second compound 0.000949 µM) was under 3.16 nM, the IC50 (second compound 0.003 µM) was under 3.16 nM and the IC50 (second compound 0.00949 µM) was under 3.16 nM. The IC50 (second compound 0.03 µM) was under 3.16 nM, the IC50 (second compound 0.0949 µM) was under 3.16 nM and the IC50 (second compound 0.3 µM) was under 3.16 nM. It also gave a viability, T/C [1] of 22.2%, a viability, T/C [2] of 23.4% and a viability, T/C [3] of 16.8%. The viability, T/C [4] was 16.1%, the viability, T/C [5] was 16.6% and the viability, T/C [6] was 12.2%. For the same molecule, the viability, T/C [7] was 22.9%, the viability, T/C [8] was 19.3% and the viability, T/C [9] was 17.4%. The viability, T/C [10] was 19.3%, the viability, T/C [11] was 17.3% and the viability, T/C [12] was 11.3%. The viability, T/C [13] was 21.3%, the viability, T/C [14] was 21.9% and the viability, T/C [15] was 19.8%. The viability, T/C [16] was 17.7%, the viability, T/C [17] was 15.8% and the viability, T/C [18] was 12.9%. For the same molecule, the viability, T/C [19] was 24.5%, the viability, T/C [20] was 21.8% and the viability, T/C [21] was 18%. It also gave a viability, T/C [22] of 19.2%, a viability, T/C [23] of 13.6% and a viability, T/C [24] of 17.5%. For the same molecule, the viability, T/C [25] was 21.9%, the viability, T/C [26] was 23.3% and the viability, T/C [27] was 19.8%. For the same molecule, the viability, T/C [28] was 16.3%, the viability, T/C [29] was 11.7% and the viability, T/C [30] was 15.8%. The viability, T/C [31] was 21.2%, the viability, T/C [32] was 21.9% and the viability, T/C [33] was 21.3%. The viability, T/C [34] was 16.3%, the viability, T/C [35] was 16% and the viability, T/C [36] was 17.9%.

With `Nc1ccn(C2OC(CO)C(O)C2(F)F)c(=O)n1` (centres undefined) + CCn1c(-c2cccnc2C(C)OC)c2c3cc(ccc31)N1CCOC(CC(NC(=O)C(C(C)C)N(C)C(=O)C3(F)CCN(C(=O)C#CC(C)(C)N(C)C)CC3)C(=O)N3CCCC(N3)C(=O)OCC(C)(C)C2)C1 the IC50 (second compound 0.000949 µM) was under 3.16 nM, the IC50 (second compound 0.003 µM) was under 3.16 nM and the IC50 (second compound 0.00949 µM) was under 3.16 nM. The IC50 (second compound 0.03 µM) was under 3.16 nM, the IC50 (second compound 0.0949 µM) was under 3.16 nM and the IC50 (second compound 0.3 µM) was under 3.16 nM. The viability, T/C [1] was 23.9%, the viability, T/C [2] was 20.1% and the viability, T/C [3] was 18.7%. For the same molecule, the viability, T/C [4] was 18.2%, the viability, T/C [5] was 19.5% and the viability, T/C [6] was 15.3%. The viability, T/C [7] was 22%, the viability, T/C [8] was 18% and the viability, T/C [9] was 16.9%. The viability, T/C [10] was 19.5%, the viability, T/C [11] was 18.4% and the viability, T/C [12] was 13.2%. The viability, T/C [13] was 22.1%, the viability, T/C [14] was 15.5% and the viability, T/C [15] was 18.8%. For the same molecule, the viability, T/C [16] was 18.2%, the viability, T/C [17] was 20.9% and the viability, T/C [18] was 17%. The viability, T/C [19] was 20.4%, the viability, T/C [20] was 20.4% and the viability, T/C [21] was 21.4%. It also gave a viability, T/C [22] of 17.4%, a viability, T/C [23] of 14.5% and a viability, T/C [24] of 17.7%. The viability, T/C [25] was 21.6%, the viability, T/C [26] was 22.1% and the viability, T/C [27] was 20.1%. It also gave a viability, T/C [28] of 17.6%, a viability, T/C [29] of 19.5% and a viability, T/C [30] of 16.7%. For the same molecule, the viability, T/C [31] was 20.3%, the viability, T/C [32] was 20.6% and the viability, T/C [33] was 17.6%. The viability, T/C [34] was 18.1%, the viability, T/C [35] was 16.6% and the viability, T/C [36] was 19.2%.
